Where two headings read alike, the source gives them in different places.
How the values were obtained:
[1] = Week 16
Protocol: Participants performed post-BD spirometry at specific visits as noted in the SOA.
After completing the pre-BD spirometry, participants inhaled four puffs of albuterol/salbutamol (site sourced) metered dose inhaler (approximately 100 μg albuterol/salbutamol base per actuation), with each actuation 1 minute apart. Post-BD spirometry was assessed within 15 to 30 minutes after inhalation of albuterol/salbutamol.

[2] = Phase III, participants with ALS; cited from earlier work
[3] = <50% AEC reduction at Week 16 (N = 4), 150 mg BID
[4] = >=50% AEC reduction at Week 16 (N = 3), 150 mg BID

Question: Which “Post bronchodilator Peak Flow, Observed, Min” value [1, 3] does the source give for `CCCN[C@@H]1CCc2nc(N)sc2C1` [Dexpramipexole, (6R)-2-amino-4,5,6,7-tetrahydro-6-(propylamino)benzothiazole] here?
Answer: 146 L/min

Question: And the “Post bronchodilator Peak Flow, Observed, Q1” value [1, 3]?
Answer: 227 L/min

Question: What about the “Post bronchodilator Peak Flow, Observed, Q3” value [1, 3] of the same compound?
Answer: 425 L/min

Question: And the “Post-BD FEV1 % change from baseline, Max” value ([1]; >=50% AEC reduction at Week 16)?
Answer: 57%

Question: What about the “Post-BD FEV1 % change from baseline, Mean ± SD” value ([1]; >=50% AEC reduction at Week 16) of the same compound?
Answer: 16.6 ± 35.02%

Question: What about the “Post-BD FEV1 % change from baseline, Median” value ([1]; >=50% AEC reduction at Week 16) of the same compound?
Answer: −1.1%

Question: And the “Post-BD FEV1 % change from baseline, Min” value ([1]; >=50% AEC reduction at Week 16)?
Answer: −6%

Question: And the “Post-BD FEV1 % change from baseline, Q1” value ([1]; >=50% AEC reduction at Week 16)?
Answer: −6%

Question: What about the “Post-BD FEV1 % change from baseline, Q3” value ([1]; >=50% AEC reduction at Week 16) of the same compound?
Answer: 57%

Question: And the “Post-BD FEV1 Observed, Max” value ([1]; >=50% AEC reduction at Week 16)?
Answer: 2150 mL

Question: What about the “Post-BD FEV1 Observed, Mean ± SD” value ([1]; >=50% AEC reduction at Week 16) of the same compound?
Answer: 1593.3 ± 616.95 mL

Question: And the “Post-BD FEV1 Observed, Median” value ([1]; >=50% AEC reduction at Week 16)?
Answer: 1700.0 mL

Question: And the “Post-BD FEV1 Observed, Min” value ([1]; >=50% AEC reduction at Week 16)?
Answer: 930 mL

Question: What about the “Post-BD FEV1 Observed, Q1” value ([1]; >=50% AEC reduction at Week 16) of the same compound?
Answer: 930 mL

Question: What about the “Post-BD FEV1 Observed, Q3” value ([1]; >=50% AEC reduction at Week 16) of the same compound?
Answer: 2150 mL

Question: What about the “Post-BD FEV1 change from baseline, Max” value ([1]; >=50% AEC reduction at Week 16) of the same compound?
Answer: 780 mL

Question: And the “Post-BD FEV1 change from baseline, Mean ± SD” value ([1]; >=50% AEC reduction at Week 16)?
Answer: 220.0 ± 487.54 mL

Question: What about the “Post-BD FEV1 change from baseline, Median” value ([1]; >=50% AEC reduction at Week 16) of the same compound?
Answer: -10.0 mL

Question: And the “Post-BD FEV1 change from baseline, Min” value ([1]; >=50% AEC reduction at Week 16)?
Answer: -110 mL

Question: What about the “Post-BD FEV1 change from baseline, Q1” value ([1]; >=50% AEC reduction at Week 16) of the same compound?
Answer: -110 mL

Question: What about the “Post-BD FEV1 change from baseline, Q3” value ([1]; >=50% AEC reduction at Week 16) of the same compound?
Answer: 780 mL

Question: What about the “Post bronchodilator Forced Expiratory Flow 25-75% (FEF25-75), % CFB (Percent change from baseline), Max” value [1, 4] of the same compound?
Answer: 81%

Question: And the “Post bronchodilator Forced Expiratory Flow 25-75% (FEF25-75), % CFB (Percent change from baseline), Mean ± SD” value [1, 4]?
Answer: 26.7 ± 49.08%

Question: What about the “Post bronchodilator Forced Expiratory Flow 25-75% (FEF25-75), % CFB (Percent change from baseline), Median” value [1, 4] of the same compound?
Answer: 12.5%

Question: And the “Post bronchodilator Forced Expiratory Flow 25-75% (FEF25-75), % CFB (Percent change from baseline), Min” value [1, 4]?
Answer: −14%

Question: What about the “Post bronchodilator Forced Expiratory Flow 25-75% (FEF25-75), % CFB (Percent change from baseline), Q1” value [1, 4] of the same compound?
Answer: −14%

Question: And the “Post bronchodilator Forced Expiratory Flow 25-75% (FEF25-75), % CFB (Percent change from baseline), Q3” value [1, 4]?
Answer: 81%

Question: What about the “Post bronchodilator Forced Expiratory Flow 25-75% (FEF25-75), CFB (Change from baseline), Max” value [1, 4] of the same compound?
Answer: 520 mL/s

Question: What about the “Post bronchodilator Forced Expiratory Flow 25-75% (FEF25-75), CFB (Change from baseline), Mean ± SD” value [1, 4] of the same compound?
Answer: 130.0 ± 350.86 mL/s

Question: What about the “Post bronchodilator Forced Expiratory Flow 25-75% (FEF25-75), CFB (Change from baseline), Median” value [1, 4] of the same compound?
Answer: 30.0 mL/s

Question: What about the “Post bronchodilator Forced Expiratory Flow 25-75% (FEF25-75), CFB (Change from baseline), Min” value [1, 4] of the same compound?
Answer: -160 mL/s

Question: What about the “Post bronchodilator Forced Expiratory Flow 25-75% (FEF25-75), CFB (Change from baseline), Q1” value [1, 4] of the same compound?
Answer: -160 mL/s

Question: What about the “Post bronchodilator Forced Expiratory Flow 25-75% (FEF25-75), CFB (Change from baseline), Q3” value [1, 4] of the same compound?
Answer: 520 mL/s

Question: And the “Post bronchodilator Forced Expiratory Flow 25-75% (FEF25-75), Observed, Max” value [1, 4]?
Answer: 1160 mL/s

Question: And the “Post bronchodilator Forced Expiratory Flow 25-75% (FEF25-75), Observed, Mean ± SD” value [1, 4]?
Answer: 810.0 ± 474.45 mL/s

Question: And the “Post bronchodilator Forced Expiratory Flow 25-75% (FEF25-75), Observed, Median” value [1, 4]?
Answer: 1000.0 mL/s

Question: What about the “Post bronchodilator Forced Expiratory Flow 25-75% (FEF25-75), Observed, Min” value [1, 4] of the same compound?
Answer: 270 mL/s

Question: And the “Post bronchodilator Forced Expiratory Flow 25-75% (FEF25-75), Observed, Q1” value [1, 4]?
Answer: 270 mL/s

Question: What about the “Post bronchodilator Forced Expiratory Flow 25-75% (FEF25-75), Observed, Q3” value [1, 4] of the same compound?
Answer: 1160 mL/s

Question: What about the “Post bronchodilator Forced Vital Capacity (FVC), % CFB (Percent change from baseline), Max” value [1, 4] of the same compound?
Answer: 36%

Question: What about the “Post bronchodilator Forced Vital Capacity (FVC), % CFB (Percent change from baseline), Mean ± SD” value [1, 4] of the same compound?
Answer: 9.2 ± 23.24%

Question: What about the “Post bronchodilator Forced Vital Capacity (FVC), % CFB (Percent change from baseline), Median” value [1, 4] of the same compound?
Answer: −2.4%

Question: And the “Post bronchodilator Forced Vital Capacity (FVC), % CFB (Percent change from baseline), Min” value [1, 4]?
Answer: −6%

Question: What about the “Post bronchodilator Forced Vital Capacity (FVC), % CFB (Percent change from baseline), Q1” value [1, 4] of the same compound?
Answer: −6%

Question: What about the “Post bronchodilator Forced Vital Capacity (FVC), % CFB (Percent change from baseline), Q3” value [1, 4] of the same compound?
Answer: 36%

Question: And the “Post bronchodilator Forced Vital Capacity (FVC), CFB (Change from baseline), Max” value [1, 4]?
Answer: 900 mL

Question: What about the “Post bronchodilator Forced Vital Capacity (FVC), CFB (Change from baseline), Mean ± SD” value [1, 4] of the same compound?
Answer: 226.7 ± 585.26 mL

Question: And the “Post bronchodilator Forced Vital Capacity (FVC), CFB (Change from baseline), Median” value [1, 4]?
Answer: -60.0 mL

Question: What about the “Post bronchodilator Forced Vital Capacity (FVC), CFB (Change from baseline), Min” value [1, 4] of the same compound?
Answer: -160 mL

Question: And the “Post bronchodilator Forced Vital Capacity (FVC), CFB (Change from baseline), Q1” value [1, 4]?
Answer: -160 mL

Question: What about the “Post bronchodilator Forced Vital Capacity (FVC), CFB (Change from baseline), Q3” value [1, 4] of the same compound?
Answer: 900 mL

Question: And the “Post bronchodilator Forced Vital Capacity (FVC), Observed, Max” value [1, 4]?
Answer: 3400 mL

Question: And the “Post bronchodilator Forced Vital Capacity (FVC), Observed, Mean ± SD” value [1, 4]?
Answer: 2796.7 ± 527.86 mL

Question: And the “Post bronchodilator Forced Vital Capacity (FVC), Observed, Median” value [1, 4]?
Answer: 2570.0 mL

Question: What about the “Post bronchodilator Forced Vital Capacity (FVC), Observed, Min” value [1, 4] of the same compound?
Answer: 2420 mL

Question: And the “Post bronchodilator Forced Vital Capacity (FVC), Observed, Q1” value [1, 4]?
Answer: 2420 mL

Question: What about the “Post bronchodilator Forced Vital Capacity (FVC), Observed, Q3” value [1, 4] of the same compound?
Answer: 3400 mL

Question: What about the “Post bronchodilator Peak Flow, % CFB (Percent change from baseline), Max” value [1, 4] of the same compound?
Answer: 103%

Question: What about the “Post bronchodilator Peak Flow, % CFB (Percent change from baseline), Mean ± SD” value [1, 4] of the same compound?
Answer: 40.2 ± 55.44%

Question: And the “Post bronchodilator Peak Flow, % CFB (Percent change from baseline), Median” value [1, 4]?
Answer: 21.5%

Question: What about the “Post bronchodilator Peak Flow, % CFB (Percent change from baseline), Min” value [1, 4] of the same compound?
Answer: −3%

Question: What about the “Post bronchodilator Peak Flow, % CFB (Percent change from baseline), Q1” value [1, 4] of the same compound?
Answer: −3%

Question: And the “Post bronchodilator Peak Flow, % CFB (Percent change from baseline), Q3” value [1, 4]?
Answer: 103%

Question: What about the “Post bronchodilator Peak Flow, CFB (Change from baseline), Max” value [1, 4] of the same compound?
Answer: 161 L/min

Question: And the “Post bronchodilator Peak Flow, CFB (Change from baseline), Mean ± SD” value [1, 4]?
Answer: 64.3 ± 86.56 L/min

Question: What about the “Post bronchodilator Peak Flow, CFB (Change from baseline), Median” value [1, 4] of the same compound?
Answer: 38.0 L/min

Question: And the “Post bronchodilator Peak Flow, CFB (Change from baseline), Min” value [1, 4]?
Answer: -6 L/min

Question: What about the “Post bronchodilator Peak Flow, CFB (Change from baseline), Q1” value [1, 4] of the same compound?
Answer: -6 L/min

Question: And the “Post bronchodilator Peak Flow, CFB (Change from baseline), Q3” value [1, 4]?
Answer: 161 L/min

Question: What about the “Post bronchodilator Peak Flow, Observed, Max” value [1, 4] of the same compound?
Answer: 318 L/min

Question: And the “Post bronchodilator Peak Flow, Observed, Mean ± SD” value [1, 4]?
Answer: 233.0 ± 77.58 L/min

Question: And the “Post bronchodilator Peak Flow, Observed, Median” value [1, 4]?
Answer: 215.0 L/min

Question: What about the “Post bronchodilator Peak Flow, Observed, Min” value [1, 4] of the same compound?
Answer: 166 L/min

Question: And the “Post bronchodilator Peak Flow, Observed, Q1” value [1, 4]?
Answer: 166 L/min

Question: And the “Post bronchodilator Peak Flow, Observed, Q3” value [1, 4]?
Answer: 318 L/min

Question: What about the “absolute eosinophil count (AEC)” value [2] of the same compound?
Answer: substantial, durable, and targeted reduction

Question: What about the “efficacy in ALS” value [2] of the same compound?
Answer: failed to demonstrate efficacy
